# Columns and labels:
# UBC13-UEV1 = target: T1, UBC13-UEV1 (Homo sapiens, UniProt P61088); test: In vitro free polyubiquitin chain formation assay; format: biochemical
# T1 construct: GST (N); made in house; host or cells: Escherichia coli BL21
# T1 sequence (P61088 1-152): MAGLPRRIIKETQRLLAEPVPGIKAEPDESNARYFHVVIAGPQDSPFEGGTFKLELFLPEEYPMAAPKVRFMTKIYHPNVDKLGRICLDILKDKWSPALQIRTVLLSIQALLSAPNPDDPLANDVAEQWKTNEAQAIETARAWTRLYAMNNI
# Experimental: As described in the Background, K63 type polyubiquitylation catalyzed by UBC13-UEV1 requires the interaction between both subunits of the heterodimer. […] In this assay, the formation of polyubiquitin chains in reactions containing 0.1 μM of E1 enzyme (Boston Biochem), 0.2 μM of UBC13, 0.2 μM of UEV1 (produced as described in Example 4), 117 μM of wild-type ubiquitin (Biomol UW8795) or mutated in all the lysines except the lysine in position 63 (ubiquitin K63) or in position 48 (ubiquitin K48; Boston Biochem), is allowed in a reaction buffer with 50 mM of Tris-HC at pH 7.6, 5 mM of MgCl2 and 0.5 mM of dithiothreitol. For the treatments with compound Ia (Varubin), UBC13 was pre-incubated for 10 minutes at room temperature with 100 μM of the compound before being added to the reaction. The reaction was initiated by means of adding 2 mM of ATP, and it was performed by means of incubating at 37° C. at different times, being stopped by means of adding Laemmli buffer (250 mM Tris-HCl, 10% SDS, 500 mM DTT, 0.5% bromophenol blue and 50% glycerol at pH 6.8) and boiling for 3 minutes. The samples were separated electrophoretically in polyacrylamide-SDS gels and transferred electrophoretically to PVDF membranes.
# PC-3 cells = test: CyQuant cell count, sensitization to doxorubicin; format: cell-based, human; details: 100 μM of compound Ia
# Experimental: The addition of 100 μM of Ia reduced the IC50 of doxorubicin to 0.1 μM for PC-3 cells and the IC50 of etoposide to 0.04 μM for HeLa cells. Therefore, the treatment with 100 μM of compound Ia causes a sensitization to the cytotoxic effects of doxorubicin of 5 times (PC-3 cells) and a sensitization to the cytotoxic effects of etoposide of 30 times (HeLa cells).
# PC-3.Sluc cells tumors = test: PC-3.Sluc tumor xenografts in Balb/c nu/nu mice, light emission (RLUs); format: in vivo
# Experimental: For the purpose of determining if Varubin has an in vivo antitumor activity, its effects in mice having tumors formed from PC-3 cells were analyzed. The experimental tumors were formed by means of the intramuscular inoculation of PC-3.Sluc cells. The latter are PC-3 prostate cells in which they have been integrated by means of transfecting plasmid pRC/CMV-luc, which expresses the firefly (Photinus pyralis) luciferase gene in mammalian cells q. The incubation of the PC-3.luc cells with D-luciferin, a luciferase substrate, produces light, which can be quantified in an absolute manner (number of photons) either by means of a luminometer or by means of detection with a CCD (charge-coupled device) camera. The latter process further allows representing in real time images of the location of the tumor cells in the inoculated animals, as well as the tumor size, since the intensity of the light (number of photons) emitted in the presence of luciferin is directly proportional to the number of PC-3.luc cells.
# For these studies, 24 male Balb/c nu/nu mice (Charles River Laboratories) of an age of 6 weeks were used. These animals were kept in a pathogen-free environment at all times, having been kept in the animal housing facility for 1 week after they were received, before the experimental handling. After being anesthetized by means of an intraperitoneal (i.p.) injection of a mixture at equal parts of 6 mg/Kg of droperidol (Roche, Basel, Switzerland) and 12 mg/Kg of midazolam (Rovi S.A, Madrid, Spain), intramuscular (i.m.) injections were performed both in the right leg and in the left leg of each animal of 1×10^6 PC-3.Sluc cells, suspended in 100 μL of fetal bovine serum-free culture medium. The development of tumors in the inoculation sites was allowed for 2 weeks, after which a first measurement of photons emitted was made and a first capture of images with an ORCA-2BT Imaging System instrument (Hammamatsu Photonics) provided with a C4742-98-LWG-MOD model CCD camera (cooled at −80° C.) was done at a resolution of 512×512 pixels. […] Four minutes later, photons were detected and quantified for 5 minutes in the instrument described above. […] The quantification and the analysis of photons were performed with the aid of the image analysis program WASABI (Hamamatsu Photonics). […] For the graphic representations, the quantitative data (RLUs) were standardized, for each tumor, in relation to the RLUs of day 0 of treatment.
# The 24 mice, having luminescent tumors in both legs, were included in 4 experimental groups: (1) Control group, in which an intravenous (i.v.) injection of 100 μL of phosphate buffered saline pH 7.4 (PBS) and 50 μL of intratumoral (i.t.) PBS was performed. […] The light emission of the tumors was analyzed throughout 56 days from the start of the treatment.
# HeLa cells = test: CyQuant cell count, sensitization to etoposide; details: HeLa cells, 100 μM of compound Ia
smiles,measurement,setting,value
"NC(=O)CN(CCc1ccccn1)C(=O)C1CC(=O)N(CCc2ccc(F)cc2)CC(=O)N1CCc1ccc(F)cc1 (centres unmarked) [Ia, N-aminocarbamoylmethyl-N-(2′-(2″pyridyl)ethyl)-1,4-bis[2′-(4″-fluorophenyl)ethyl]-3,7-dioxo-[1,4]diazepane-5-carboxamide]",type of inhibition of the enzymatic activity of UBC13-UEV1,"UBC13-UEV1; 100 μM, slopes of the curves",competitive type
same,inhibition of polyubiquitylation with ubiquitin K63 as substrate,"UBC13-UEV1; 100 μM, ubiquitin K63",efficiency similar to when the substrate is wild-type ubiquitin
same,rate of generation of polyubiquitylated forms,"UBC13-UEV1; UBC13 pre-incubated with 100 μM, wild-type ubiquitin",lower rate of generation of polyubiquitylated forms
same,sensitization to the cytotoxic effects of doxorubicin,PC-3 cells,5 times
same,antitumor activity in tumors transplanted in nu/nu mice,"PC-3.Sluc cells tumors; 100 μM, intramuscular injection",shows antitumor activity
same,tumor growth (RLUs),"PC-3.Sluc cells tumors; Varubin alone, 100 μM in 50 μL of PBS, i.t./i.m., twice a week, 56 days",very limited growth
same,"tumor growth (RLUs), combined treatment","PC-3.Sluc cells tumors; doxorubicin i.v. 5 mg/Kg once a week plus Varubin 100 μM twice a week, 56 days",did not grow significantly
same,sensitization to the cytotoxic effects of etoposide,HeLa cells,30 times

# — patent publication US8785430B2, “Compound that can inhibit UBC13-UEV interactions, pharmaceutical compositions and therapeutic uses” (Consejo Superior de Investigaciones Cientificas, priority 2006, dated 2014)
